In publication PMC9101188, “Human α-Defensin-6 Neutralizes Clostridioides difficile Toxins TcdA and TcdB by Direct Binding” (International Journal of Molecular Sciences, 2022):

Assays:
[1] = tested on: TcdB autoprotease domain; assay: In vitro autoprocessing of TcdB (InsP6-induced autoprotease activity); type: biochemical, C. difficile VPI 10463; settings: TcdB 2 µg, InsP6 1 mM; α-def-6 3 µM, 9 µM; 1 h, 37 °C, pH 7.4; SDS-PAGE, Coomassie (n = 2)
Description: (§1) The flow rate was 25 µL/min. […] A representative gel is shown (n = 2). […] GAPDH served as the loading control. A representative Western blot is shown.
The effects of α-def-6 on TcdB autoprocessing by its intrinsic cysteine protease activity were analyzed. […] Inositol hexakisphosphate (1 mM, Santa Cruz Biotechnology, Dallas, TX, USA) was added to the samples to induce autoprocessing. N-Ethylmaleimide (1 mM, Sigma Aldrich by Merck KGaA, Darmstadt, Germany) served as positive control for the inhibition of TcdB-autoprocessing. The reactions were stopped by addition of a Laemmli buffer and heat denaturation (95 °C). For the analysis, the samples were electrophoresed on 8% SDS polyacrylamide gels, and proteins were visualized by Coomassie staining.

[2] = tested on: TcdB glucosyltransferase; assay: In vitro glucosylation of Rac1 by TcdB (CaCo-2 lysate, Western blot); type: biochemical, C. difficile VPI 10463; settings: CaCo-2 cell lysate 40 µg, TcdB 50 ng; α-def-6 up to 12 µM; 2 h, 37 °C, pH 7.5; Western blot (n = 4)
Description: as §1
To evaluate the potential effects of α-def-6 on TcdB glucosyltransferase activity, 40 µg of CaCo-2 cell lysate were used as a source of Rac1 and incubated with TcdB (50 ng) in glucosylation buffer (50 mM HEPES, 100 mM KCl, 2 mM MgCl2, 1 mM MnCl2, 100 mg/L BSA, pH 7.5) in a final volume of 20 µL. Two concentrations of α-def-6 (6 µM, 12 µM) were tested. Reactions were allowed to proceed for 2 h at 37 °C and stopped with the addition of a Laemmli buffer and heating for 10 min at 95 °C. The samples were loaded onto a 12.5% polyacrylamide gel and separated via SDS-PAGE followed by Western blotting. Unspecific binding sites were blocked with 5% (w/v) skim milk powder diluted in PBS with 0.1% (v/v) Tween®20 (PBS-T, pH 7.4) for 1 h at RT. The glucosylation status of Rac1 was assessed by probing with a mouse anti-Rac1-antibody (1:500, #610651, BD Biosciences, Franklin Lakes, NJ, USA) specifically directed against non-glucosylated Rac1 overnight at 4 °C. After washing, the membrane was incubated with a secondary horseradish-peroxidase (HRP)-conjugated goat-anti-mouse antibody (1:2500, #31430, Invitrogen by Thermo Fisher Scientific, Waltham, MA, USA) for 1 h at RT. Signals were detected using the ECL-system. […]

[3] = tested on: Vero cells; type: cell-based, African green monkey
[4] = tested on: Vero cells; type: cell-based, African green monkey; remark: listed apart in the source
[5] = tested on: Rac1; type: cell-based, African green monkey
[6] = tested on: Rac1; type: cell-based, African green monkey; remark: listed apart in the source
[7] = tested on: CaCo-2 monolayer; type: cell-based, human
[8] = tested on: bacteria; settings: cited from earlier work
Excerpt: The benchmark for treating CDIs is still the use of some specific antibiotics such as vancomycin, metronidazole or fidaxomicin [20]. More and more attention is also being paid to the direct inactivation of the secreted toxins, for example by using anti-toxin-antibodies such as bezlotoxumab or actoxumab. Following the approach of directly inactivating the secreted toxins and based on previous findings of our group and of others, we investigated the effects of human endogenous antimicrobial peptides on the C. difficile toxins TcdA and TcdB. […] The administration of α-def-6 protected human cells from TcdB, but also from the closely related TcdA and the clinically more relevant combination of both TcdA and TcdB. Exemplarily, the protective effect could be confirmed for TcdB in vivo using the zebrafish embryo ...

CC[C@H](C)[C@@H]1NC(=O)CNC(=O)[C@H](CCSC)NC(=O)[C@H](C(C)C)NC(=O)[C@H]([C@@H](C)O)NC(=O)[C@@H]2CSSC[C@@H]3NC(=O)[C@H](Cc4c[nH]cn4)NC(=O)[C@@H](NC(=O)[C@@H](NC(=O)[C@H](Cc4ccccc4)NC(=O)[C@H](C)N)[C@@H](C)O)CSSC[C@@H](C(=O)N[C@@H](CC(C)C)C(=O)O)NC(=O)[C@H](CSSC[C@H](NC(=O)[C@H](CO)NC(=O)[C@H](CCCNC(=N)N)NC(=O)[C@H](CCCNC(=N)N)NC3=O)C(=O)N[C@@H](Cc3ccc(O)cc3)C(=O)N[C@@H](CO)C(=O)N[C@@H]([C@@H](C)O)C(=O)N[C@@H](CCC(=O)O)C(=O)N[C@@H](Cc3ccc(O)cc3)C(=O)N[C@@H](CO)C(=O)N[C@@H](Cc3ccc(O)cc3)C(=O)NCC(=O)N[C@@H]([C@@H](C)O)C(=O)N2)NC(=O)[C@H](Cc2ccccc2)NC(=O)[C@H](CCCNC(=N)N)NC(=O)[C@H](Cc2c[nH]cn2)NC(=O)[C@H](CC(N)=O)NC1=O [α-def-6]
release of the glucosyltransferase domain by the autoprotease domain (effect of substance) [1]: not affected
inhibition of enzymatic activity of the glucosyltransferase domain of TcdB [2]: almost no inhibition
inhibition of toxin effects on cells, TcdA [3]: clear inhibition
protection of cells against TcdA [3]: clear protection
inhibition of toxin effects on cells, TcdA + TcdB [4]: clear inhibition
protection of cells against TcdA + TcdB [4]: clear protection
glucosylation of Rac1 by TcdA [5]: clearly less Rac1 was glucosylated
Rac1 modification by TcdA + TcdB [6]: diminished the toxin-mediated Rac1-modification
TEER, TcdA + TcdB [7]: clear delay in TEER-reduction
microbiocidal activity ([8]; ref [27]): negligible microbiocidal activity
biocidal / antimicrobial activity ([8]; ref [46]): surprisingly low antimicrobial activity
